Test results as given in patent publication US5736380A, “Maltose-trehalose converting enzyme, and preparation and uses thereof” (Kabushiki Kaisha Hayashibara Seibutsu Kagaku Kenkyujo, priority 1993, dated 1998).

Tests used:
[1] = molecular target: T1, maltose-trehalose converting enzyme derived from Pimelobacter sp. R48 (Pimelobacter sp., UniProt P72235); assay: Action on saccharides (TLC before and after enzymatic reaction); assay type: biochemical; conditions: 20° C., pH 7.0, 24 hours
T1 construct: The culture obtained in Experiment 1 was centrifuged to obtain an about 0.5 kg wet cells; endogenous in cells; host or cells: Pimelobacter sp; R48 (FERM BP-4315), enzyme purified from the disrupted wild-type cells
T1 sequence (P72235 1-573): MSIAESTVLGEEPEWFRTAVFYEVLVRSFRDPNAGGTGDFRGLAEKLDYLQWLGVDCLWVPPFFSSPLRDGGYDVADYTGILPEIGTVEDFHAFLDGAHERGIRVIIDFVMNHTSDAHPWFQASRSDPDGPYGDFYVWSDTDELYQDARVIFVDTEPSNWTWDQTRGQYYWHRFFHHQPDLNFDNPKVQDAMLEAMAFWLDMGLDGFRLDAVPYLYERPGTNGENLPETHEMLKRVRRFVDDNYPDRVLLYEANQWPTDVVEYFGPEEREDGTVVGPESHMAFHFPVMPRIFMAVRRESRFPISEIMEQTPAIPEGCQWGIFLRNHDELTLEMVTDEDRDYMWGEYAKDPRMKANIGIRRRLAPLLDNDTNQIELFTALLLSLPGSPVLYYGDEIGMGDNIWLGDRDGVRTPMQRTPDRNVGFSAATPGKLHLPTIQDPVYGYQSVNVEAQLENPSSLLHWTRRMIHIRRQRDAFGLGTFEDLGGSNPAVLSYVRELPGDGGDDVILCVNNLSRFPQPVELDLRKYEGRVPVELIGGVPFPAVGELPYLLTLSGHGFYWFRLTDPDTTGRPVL
Experimental: A variety of saccharides were tested for determining whether they could be used as a substrate for the present enzyme. Glucose, maltose, maltotriose,maltotetraose, maltopentaose, maltohexaose, maltoheptaose, soluble starch, amylose having an average polymerization degree of 18, trehalose, neotrehalose, gentiobiose, kojibiose, isomaltose, cellobiose, maltitol, sucrose, maltulose, turanose, paratinose, trehalulose or lactose was prepared into a solution. A solution containing glucose and the equal amount of α-glucose 1-phosphate or β-glucose 1-phosphate was prepared.
(§1) The solutions were respectively mixed with 2 units/g substrate, d.s.b., of a maltose-trehalose converting enzyme obtained by the method in Experiment 2, adjusted their substrate concentrations to 5 w/v %, and subjected to enzymatic reaction at 20° C. and pH 7.0 for 24 hours. The solutions before and after their enzymatic reactions were subjected to thin layer chromatography (TLC) using "[…] 60 (20×20 cm)", an aluminum plate for TLC commercialized by Merck & Co., Inc., Rahway, USA, for determining whether the present enzyme acts on the saccharides. The resultant products were developed once on the plates by using a developing solvent system of 1-butanol, pyridine and water (=6:4:1 by volume). The products on the plates were colored by spraying thereto a 20 v/v % sulfuric acid in methanol, and heating the plates at 110° C. for 10 min.

[2] = molecular target: enzyme from Pseudomonas putida H262 (Pseudomonas putida, UniProt Q88FN0); assay: Action on saccharides (TLC), 35° C.; assay type: biochemical
Experimental: A variety of saccharides were tested for determining whether they could be used as a substrate for the present enzyme.
as §1
A variety of saccharides were tested for determining whether they could be used as a substrate for the present enzyme from Pseudomonas putida H262 obtained in Experiment 10 in accordance with the method in Experiment 4 except for setting the reaction temperature to 35° C. Similarly as the enzyme from Pseudomonas putida H262, the enzyme from Pimelobacter sp.

[3] = tested on: Partially purified enzymes derived from known microorganisms of the genus Thermus; assay: Action on saccharides, partially purified enzymes; assay type: biochemical; conditions: method of Experiment 18
Experimental: A variety of saccharides were tested for determining whether they could be used as a substrate for the present enzyme from Thermus aquaticus (ATCC 33923), obtained in accordance with the method in Experiment 4 except for setting the reaction temperature to 50° C. Similarly as the enzymes from Pimelobacter sp.
Among conventional microorganisms, a microorganism which had been confirmed its ability to form the present maltose-trehalose converting enzyme was incubated in an Erlenmeyer flask for 48 hours in accordance with Experiment 15. After analyzed the enzyme activity, the resultant culture was subjected to a cell disrupting apparatus in accordance with Experiment 16. From the resultant mixture a supernatant was prepared and dialyzed to obtain a partially purified enzyme, followed by analyzing the property in accordance with Experiment 17.
Partially purified enzymes derived from known microorganisms of the genus Thermus as shown in Table 12 were studied on their action on a variety of saccharides in accordance with the method in Experiment 18.

[4] = Physicochemical property of trehalose: solubility in water; conditions: at 25° C., for anhydrous trehalose
Experimental: A high-purity trehalose specimen prepared by the method in Experiment 8 was studied on its physicochemical property. As a result, the melting point was determined as 97.0° C., the specific rotation was [α]D^20 +199° […].

[5] = Utilization test in vivo (blood sugar- and insulin-levels after oral administration); conditions: 30 g as 20 w/v % aqueous solution, orally, healthy male volunteers
Experimental: In accordance with the method as reported by H. Atsuji et al. in Journal of Clinical Nutrition, Vol.41, No.2, pp.200-208 (1972), 30 g of the high-purity trehalose specimen with a purity of 99.8%, d.s.b., in Experiment 8 was prepared into a 20 w/v % aqueous solution which was then orally administered to 3 healthy male volunteers, and their bloods were sampled at prescribed time intervals, followed by the measurements of the blood sugar- and insulin-levels. As a control glucose was used. […] Thus, the present trehalose and saccharide composition containing the same are suitably used as an energy-supplementing saccharide.

mice = assay: Acute toxicity test, oral; assay type: in vivo; conditions: highest level of dose administrable
Experimental: (§2) By using mice, the high-purity trehalose specimen with a purity of 99.8%, d.s.b., prepared in Experiment 8 was orally administered to the mice for its acute toxicity test. […] Though it is not so accurate, the LD50 was determined to be 50 g/kg or higher.

[6] = Acute toxicity test, oral; assay type: in vivo; conditions: mouse, in vivo, mice, not so accurate
Experimental: as §2

Sequence of enzyme from Pseudomonas putida H262 (Q88FN0 entry or part of it): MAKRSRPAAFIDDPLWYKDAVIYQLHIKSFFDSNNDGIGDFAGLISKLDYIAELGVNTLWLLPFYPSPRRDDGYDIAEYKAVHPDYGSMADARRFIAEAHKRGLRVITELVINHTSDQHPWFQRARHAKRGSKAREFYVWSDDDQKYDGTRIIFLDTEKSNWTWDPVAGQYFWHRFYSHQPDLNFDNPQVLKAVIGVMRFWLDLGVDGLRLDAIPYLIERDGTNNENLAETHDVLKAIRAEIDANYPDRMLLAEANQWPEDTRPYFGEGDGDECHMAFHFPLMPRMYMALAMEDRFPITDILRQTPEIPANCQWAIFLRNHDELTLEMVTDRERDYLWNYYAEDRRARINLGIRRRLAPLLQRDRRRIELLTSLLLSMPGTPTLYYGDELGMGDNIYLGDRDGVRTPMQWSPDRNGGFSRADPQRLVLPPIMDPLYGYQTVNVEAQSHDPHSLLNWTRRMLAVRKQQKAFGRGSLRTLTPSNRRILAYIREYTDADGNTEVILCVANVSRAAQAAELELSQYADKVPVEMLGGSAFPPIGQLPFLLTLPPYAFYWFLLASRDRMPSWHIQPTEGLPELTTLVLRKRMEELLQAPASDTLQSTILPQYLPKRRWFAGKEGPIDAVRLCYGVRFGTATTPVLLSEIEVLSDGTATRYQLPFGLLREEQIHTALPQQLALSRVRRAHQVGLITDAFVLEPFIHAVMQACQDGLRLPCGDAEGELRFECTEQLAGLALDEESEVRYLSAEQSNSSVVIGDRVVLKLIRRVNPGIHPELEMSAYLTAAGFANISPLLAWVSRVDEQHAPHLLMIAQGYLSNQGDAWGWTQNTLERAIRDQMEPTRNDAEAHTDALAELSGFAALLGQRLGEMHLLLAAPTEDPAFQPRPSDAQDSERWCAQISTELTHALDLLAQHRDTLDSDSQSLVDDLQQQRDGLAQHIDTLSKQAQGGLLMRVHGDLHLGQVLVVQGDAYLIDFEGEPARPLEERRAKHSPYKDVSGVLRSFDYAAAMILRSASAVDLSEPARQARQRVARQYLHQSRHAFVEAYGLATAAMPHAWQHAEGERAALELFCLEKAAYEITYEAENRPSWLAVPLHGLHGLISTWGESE

OC[C@H]1O[C@H](O[C@H]2[C@H](O)[C@@H](O)[C@H](O)O[C@@H]2CO)[C@H](O)[C@@H](O)[C@@H]1O [Maltose]
Action of enzyme ([1]; 2 units/g substrate, substrate 5 w/v %): + +
action of enzyme on saccharide [1]: only acts on
action of enzyme on saccharide [2]: specifically acted on
action of enzyme on saccharide [3]: specifically acted on

OC[C@H]1O[C@H](O[C@H]2O[C@H](CO)[C@@H](O)[C@H](O)[C@H]2O)[C@H](O)[C@@H](O)[C@@H]1O [Trehalose]
action of enzyme on saccharide [1]: only acts on
action of enzyme on saccharide [2]: specifically acted on
action of enzyme on saccharide [3]: specifically acted on

OC[C@H]1O[C@H](O[C@H]2O[C@H](CO)[C@@H](O)[C@H](O)[C@H]2O)[C@H](O)[C@@H](O)[C@@H]1O [high-purity trehalose specimen, trehalose]
solubility in water [4]: 77.0 g
blood sugar- and insulin-levels compared with glucose control [5]: behaved similarly as glucose
time of the maximum of blood sugar-level after the administration [5]: 0.5 to 1 h
time of the maximum of insulin-level after the administration [5]: 0.5 to 1 h
mortality (mice): no mouse died
LD50 [6]: ≥ 50000 mg/kg
